Experimental data taken from patent publication US5976866A, “Screen for inhibitors of fungal IPC synthase” (Eli Lilly and Company, priority 1997, dated 1999).
≈ marks a conversion by molar mass, not a printed value. Read-outs that look alike come from different tables or passages of the source.

What was measured:
Type in all cases: cell-based, S. cerevisiae
[1] = test system: Strain A; assay: Sensitivity to antifungal compounds (MIC), Strain A; conditions: for MIC: Saccharomyces cerevisiae, read-out: Minimum Inhibitory Concentration
Method: (§1) Strains A and B, and wild-type strain YPH499 (transformed with YEp352) were tested for sensitivity to a variety of known antifungal compounds. Cells were grown in YEPD or SC-URA (2% glucose) liquid culture and dispensed into the wells of a 96-well microtiter dish containing decreasing amounts of antifungal compounds, as in Example 2.
(§2) ^a Cells were grown in SCURA (2% glucose)

[2] = test system: YPH499 (transformed by YEp352); assay: Sensitivity to antifungal compounds (MIC), wild-type YPH499 (YEp352); conditions: for MIC: Saccharomyces cerevisiae, read-out: Minimum Inhibitory Concentration
Method: as §1, §2
^b YPH499 is transformed by YEp352.

[3] = test system: strains A and B; assay: Whole-cell comparison of strains A and B (and wild type) with antifungal compounds that do not target IPC synthase; conditions: strains A and B compared
Method: as §1

[4] = test system: Strain B; assay: Sensitivity to antifungal compounds (MIC), Strain B; conditions: for MIC: Saccharomyces cerevisiae, read-out: Minimum Inhibitory Concentration
Method: as §1, §2

Compound	MIC ([1]; SC-URA (2% glucose))	MIC ([2]; SC-URA (2% glucose))	effect on strains A and B (in words) [3]	MIC ([4]; SC-URA (2% glucose))	further results
C[C@@H]1[C@H](O)[C@@H](C)/C=C/C=C/C=C/C=C/C=C/C=C/C=C/[C@H](O[C@@H]2O[C@H](C)[C@@H](O)[C@H](N)[C@@H]2O)C[C@@H]2O[C@](O)(C[C@@H](O)C[C@@H](O)[C@H](O)CC[C@@H](O)C[C@@H](O)CC(=O)O[C@H]1C)C[C@H](O)[C@H]2C(=O)O [Amphotericin B]	2500 µg/mL (≈ 2710 µM)	2500 µg/mL (≈ 2710 µM)	equally affected	2500 µg/mL (≈ 2710 µM)	
C[C@@H]1C[C@@H]([C@H](O)CC2CC(=O)NC(=O)C2)C(=O)[C@@H](C)C1 [Cycloheximide]			equally affected		MIC [1]: 300 µg/mL (≈ 1070 µM); MIC [2]: 300 µg/mL (≈ 1070 µM); MIC [4]: 600 µg/mL (≈ 2130 µM)
OC(Cn1cncn1)(Cn1cncn1)c1ccc(F)cc1F [Fluconazole]	> 80000 µg/mL	> 80000 µg/mL	equally affected	> 80000 µg/mL	
CCC(C)n1ncn(-c2ccc(N3CCN(c4ccc(OCC5COC(Cn6cncn6)(c6ccc(Cl)cc6Cl)O5)cc4)CC3)cc2)c1=O (centres unmarked) [Itraconazole]	1200 µg/mL (≈ 1700 µM)	1200 µg/mL (≈ 1700 µM)		1200 µg/mL (≈ 1700 µM)	
C[C@@H]1[C@H](O)[C@@H](C)/C=C/C=C/CC/C=C/C=C/C=C/C=C/C(O[C@H]2O[C@H](C)[C@@H](O)[C@H](N)[C@@H]2O)CC2O[C@](O)(CC(O)C(O)CCC(O)CC(O)CC(O)CC(=O)O[C@H]1C)CC(O)C2C(=O)O (some centres unmarked) [Nystatin]			equally affected		Minimum Inhibitory Concentration ([1]; SC-URA (2% glucose)): 20 mg/mL; Minimum Inhibitory Concentration ([2]; SC-URA (2% glucose)): 20 mg/mL; Minimum Inhibitory Concentration ([4]; SC-URA (2% glucose)): 20 mg/mL
CC(=O)N1CCN(c2ccc(OCC3COC(Cn4ccnc4)(c4ccc(Cl)cc4Cl)O3)cc2)CC1 (centres unmarked) [ketoconazole]			equally affected		
